This experiment has as its target T1, TRAP1 enzyme (Homo sapiens, UniProt Q12931).
T1 construct: 150 nM Trap1 enzyme was incubated with various concentrations of the test compound
T1 sequence (Q12931 60-704): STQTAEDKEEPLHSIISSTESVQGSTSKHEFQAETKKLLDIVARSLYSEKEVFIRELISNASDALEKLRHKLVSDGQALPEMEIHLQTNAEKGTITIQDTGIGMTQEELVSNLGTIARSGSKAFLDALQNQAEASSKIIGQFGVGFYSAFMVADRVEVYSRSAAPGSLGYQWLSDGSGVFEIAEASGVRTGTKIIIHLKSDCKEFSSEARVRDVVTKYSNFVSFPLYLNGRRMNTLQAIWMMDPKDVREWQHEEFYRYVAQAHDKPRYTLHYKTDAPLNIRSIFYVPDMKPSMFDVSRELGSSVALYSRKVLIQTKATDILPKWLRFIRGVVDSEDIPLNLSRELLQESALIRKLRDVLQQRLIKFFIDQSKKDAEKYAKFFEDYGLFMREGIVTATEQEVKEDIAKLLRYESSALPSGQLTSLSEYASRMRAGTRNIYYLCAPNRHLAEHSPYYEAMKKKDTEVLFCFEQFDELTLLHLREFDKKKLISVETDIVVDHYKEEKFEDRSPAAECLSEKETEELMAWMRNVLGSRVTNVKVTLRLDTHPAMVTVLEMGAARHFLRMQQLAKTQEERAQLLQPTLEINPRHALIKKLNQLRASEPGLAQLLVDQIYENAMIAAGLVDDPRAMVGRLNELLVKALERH
The experiment can be described thus: ADP Glo assay of TRAP1 ATPase activity. Type of experiment: biochemical. As to conditions: for EC50: concentration for half maximal activation, read-out: ADP GLO DRC: GeoMean EC50; for Emax: maximal percent activation, read-out: ADP GLO DRC: Mean Emax; for activation at 50 µM: 1 h, compound concentration 50 μM, read-out: ADP-Glo Percent Activation at 50 μM. Put shortly: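 Compound (0.79–100 μM) was preincubated 30 min at 37° C with 150 nM TRAP1 in 25 mM Pipes pH 7.5, 40 mM KCl, 0.05 mM MgCl2. Reaction started with 20 μM ATP, 60 min at 37° C. ADP measured by luminescence against a standard curve; activation fitted sigmoidally for EC50 and Emax.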

Take `COc1ncc(NC(=O)c2coc(-c3ccccc3)n2)cc1S(=O)(=O)Nc1c(C)ccc(C#N)c1C` [compound 2072]: the EC50 was < 10 µM and the Emax lay in the range of 160 to 199%.

Consider `COc1ncc(NC(=O)c2csc(-c3ccccc3)n2)cc1S(=O)(=O)Nc1sc2c(c1C#N)CCCC2` [compound 2088], for which the EC50 fell in the range of 20 to 100 µM and the Emax was 200 to 300%.

As to `COc1ncc(NC(=O)c2c[nH]c(-c3ccccc3)n2)cc1S(=O)(=O)Nc1c(C)cccc1C` [compound 2092], the EC50 is < 10 µM and the maximum response (Emax) was in the range of 200 to 300%.

For `COc1ncc(NC(=O)c2ncc(-c3ccccc3)o2)cc1S(=O)(=O)Nc1cccc(C(F)(F)F)n1` [compound 2119], the EC50 fell in the range of 20 to 100 µM and the Emax was 200 to 300%.

For `COc1ncc(NC(=O)c2csc(-c3ccccc3)n2)cc1S(=O)(=O)Nc1cccc(C#N)n1` [compound 2142], the EC50 was in the range of 20 to 100 µM and the Emax was 200 to 300%.

For the compound `COc1ncc(NC(=O)c2ncc(-c3ccccc3)o2)cc1S(=O)(=O)Nc1cccc(C#N)n1` [compound 2148], the EC50 is 20 to 100 µM and the Emax is 160 to 199%.

Take `COc1ncc(NC(=O)c2coc(-c3cc(F)c(F)c(F)c3)n2)cc1S(=O)(=O)Nc1cccc(C(F)(F)F)n1` [compound 2151]: the EC50 was 20 to 100 µM and the Emax fell in the range of 200 to 300%.

On to `COc1ncc(NC(=O)c2csc(-c3ccccc3)n2)cc1S(=O)(=O)Nc1cc(F)c(C)cc1C#N` [compound 2155], for which the EC50 lay within 10 to 20 µM and the Emax lay within 200 to 300%.

`COc1ncc(NC(=O)c2coc(-c3ccccc3)n2)cc1S(=O)(=O)Nc1cc(C(F)(F)F)n[nH]1` [compound 2156]: the EC50 was 20 to 100 µM and the Emax lay in the range of 200 to 300%.

On to `COc1ncc(NC(=O)c2coc(-c3ccccc3)n2)cc1S(=O)(=O)Nc1cccc(C#N)n1` [compound 2157], for which the EC50 lay in the range of 20 to 100 µM and the Emax was in the range of 160 to 199%.

As to `COc1ncc(NC(=O)c2ncc(-c3ccccc3)o2)cc1S(=O)(=O)Nc1cc(C(F)(F)F)n[nH]1` [compound 2361], the EC50 lay in the range of 20 to 100 µM and the Emax fell in the range of 119 to 159%.

In the case of `COc1ncc(NC(=O)c2csc(-c3ccccc3)n2)cc1S(=O)(=O)Nc1cc(C(F)(F)F)ncc1C` [compound 2365], the EC50 fell in the range of 20 to 100 µM and the Emax is 200 to 300%.

`COc1ncc(NC(=O)c2ncc(-c3ccccc3)o2)cc1S(=O)(=O)Nc1ccc(F)c(F)c1C` [compound 2366]: the EC50 was < 10 µM and the Emax lay within 160 to 199%.

As to `COc1ncc(NC(=O)c2coc(-c3ccccc3)n2)cc1S(=O)(=O)Nc1ccc(F)cc1C(C)C` [compound 2381], the EC50 was < 10 µM and the Emax fell in the range of 200 to 300%.

On to `COc1ncc(NC(=O)c2coc(-c3cccnc3)n2)cc1S(=O)(=O)Nc1c(C)cccc1C` [compound 2387], for which the EC50 fell in the range of 20 to 100 µM and the Emax is 200 to 300%.

For the compound `COc1ncc(NC(=O)c2csc(-c3cccnc3)n2)cc1S(=O)(=O)Nc1ccc(F)c(F)c1C` [compound 2390], the EC50 was 10 to 20 µM and the Emax is 200 to 300%.

For `COc1ncc(NC(=O)c2ncc(-c3ccccc3)o2)cc1S(=O)(=O)Nc1nc(C(C)(C)C)ns1` [compound 2396], the EC50 was in the range of 20 to 100 µM and the Emax lay in the range of 160 to 199%.

As for `COc1ncc(NC(=O)c2cnc(-c3ccccc3)o2)cc1S(=O)(=O)Nc1cccc(C(F)(F)F)n1` [compound 2397], the EC50 fell in the range of 20 to 100 µM and the Emax is 119 to 159%.

On to `COc1ncc(NC(=O)c2coc(-c3ccccc3)n2)cc1S(=O)(=O)Nc1nc(C(C)(C)C)ns1` [compound 2403], for which the EC50 was 20 to 100 µM and the Emax was 200 to 300%.

On to `COc1ncc(NC(=O)c2csc(-c3cc(F)c(F)c(F)c3)n2)cc1S(=O)(=O)Nc1cc(C)n(C(C)C)n1` [compound 2407], for which the EC50 fell in the range of 10 to 20 µM and the Emax lay within 119 to 159%.

With `Cc1cccc(C)c1NS(=O)(=O)c1cc(NC(=O)c2csc(-c3ccccc3)n2)cnc1OCC(O)CO` (stereo not drawn) [compound 2418], the EC50 was < 10 µM and the Emax was in the range of 160 to 199%.

Turning to `COc1ncc(NC(=O)c2csc(-c3ccccc3OCC(O)CO)n2)cc1S(=O)(=O)Nc1c(C)cccc1C` (stereo not drawn) [compound 2427], the EC50 is < 10 µM and the maximal response (Emax) fell in the range of 200 to 300%.

Turning to `COc1ncc(NC(=O)c2csc(-c3ccccc3)n2)cc1S(=O)(=O)N(CC(O)CO)c1ccc(Cl)cc1` (stereo not drawn) [compound 2431], the EC50 was < 10 µM and the Emax was in the range of 160 to 199%.

Consider `COc1ncc(NC(=O)c2csc(-c3cccc(Cl)n3)n2)cc1S(=O)(=O)Nc1c(C)cccc1C` [compound 2445], for which the EC50 is < 10 µM and the maximal response (Emax) lay within 160 to 199%.

Turning to `COc1ncc(NC(=O)c2coc(-c3ccccc3)n2)cc1S(=O)(=O)Nc1cccc2cnc(C)cc12` [compound 2447], the EC50 lay within 10 to 20 µM and the Emax was in the range of 160 to 199%.

Take `COc1ncc(NC(=O)c2csc(-c3cccc(OCC4COC(C)(C)O4)n3)n2)cc1S(=O)(=O)Nc1c(C)cccc1C` (stereo not drawn) [compound 2454]: the EC50 was < 10 µM and the Emax lay in the range of 119 to 159%.

For the compound `COc1ncc(NC(=O)c2csc(-c3cccc(OCC(O)CO)n3)n2)cc1S(=O)(=O)Nc1c(C)cccc1C` (stereo not drawn) [compound 2463], the EC50 was < 10 µM and the Emax is 200 to 300%.

Regarding `COc1ncc(NC(=O)c2csc(-c3cc(F)c(F)c(F)c3)n2)cc1S(=O)(=O)Nc1c(C)csc1C` [compound 2466], the EC50 was < 10 µM and the Emax was in the range of 160 to 199%.

With `COc1ncc(NC(=O)c2ncc(-c3ccccc3)o2)cc1S(=O)(=O)Nc1c(C)cccc1C` [compound 2470], the EC50 was < 10 µM and the Emax lay within 160 to 199%.

Regarding `COc1ncc(NC(=O)c2c[nH]c(C(F)(F)F)n2)cc1S(=O)(=O)Nc1c(C)cccc1C` [compound 2474], the EC50 lay in the range of 20 to 100 µM and the Emax fell in the range of 160 to 199%.

In the case of `COc1ncc(NC(=O)c2ncoc2C(C)C)cc1S(=O)(=O)Nc1ccc(Cl)cc1` [compound 2487], the EC50 lay in the range of 10 to 20 µM and the Emax was in the range of 160 to 199%.

Consider `[2H]c1c([2H])c([2H])c(C([2H])([2H])[2H])c(NS(=O)(=O)c2cc(NC(=O)c3csc(-c4ccccc4)n3)cnc2OC)c1[2H]` [compound 2492], for which the EC50 is < 10 µM and the Emax fell in the range of 119 to 159%.

For the compound `[2H]c1c([2H])c([2H])c(C([2H])([2H])[2H])c(NS(=O)(=O)c2cc(NC(=S)c3coc(-c4ccccc4)n3)cnc2OC)c1[2H]` [compound 2493], the EC50 is 20 to 100 µM and the Emax was 160 to 199%.

Consider `COc1ncc(NC(=O)c2csc(C(C)C)n2)cc1S(=O)(=O)Nc1c(C)cccc1C` [compound 2496], for which the EC50 is 10 to 20 µM and the Emax is 160 to 199%.

With `COc1ncc(NC(=O)c2coc(-c3ccccc3)n2)cc1S(=O)(=O)Nc1c(C2CC2)cccc1C1CC1` [compound 2497], the EC50 was < 10 µM and the Emax was in the range of 160 to 199%.

For the compound `COc1ncc(NC(=O)c2csc(C(F)(F)F)n2)cc1S(=O)(=O)Nc1c(C)cccc1C` [compound 2498], the EC50 lay in the range of 10 to 20 µM and the Emax was 160 to 199%.

As for `COc1ncc(NC(=O)c2csc(-c3ccccc3)n2)cc1S(=O)(=O)Nc1c(C2CC2)cccc1C1CC1` [compound 2499], the EC50 was < 10 µM and the Emax was in the range of 160 to 199%.

For `[2H]c1c([2H])c([2H])c(-c2nc(C(=O)Nc3cnc(OC)c(S(=O)(=O)Nc4c(C)cccc4C)c3)cs2)c([2H])c1[2H]` [compound 2500], the EC50 is < 10 µM and the Emax fell in the range of 119 to 159%.

For `COc1ncc(NC(=O)c2csc(C)n2)cc1S(=O)(=O)Nc1c(C)cccc1C` [compound 2501], the EC50 is 20 to 100 µM and the Emax fell in the range of 160 to 199%.

In the case of `COc1ncc(NC(=O)c2csc(Br)n2)cc1S(=O)(=O)Nc1c(C)cccc1C` [compound 2502], the EC50 lay within 10 to 20 µM and the Emax lay within 119 to 159%.

For `COc1ncc(NC(=O)c2csc(-c3ccccc3)n2)cc1S(=O)(=O)Nc1c(C)cccc1P(C)(C)=O` [compound 2506], the EC50 fell in the range of 20 to 100 µM and the Emax was 200 to 300%.

Regarding `COc1ncc(NC(=O)c2ncc(-c3ccccc3)o2)cc1S(=O)(=O)Nc1nc(C(F)(F)F)ccc1C` [compound 2512], the EC50 was in the range of 10 to 20 µM and the Emax is 119 to 159%.

On to `COc1ncc(NC(=O)c2ccc3c(c2)CC(=O)N3)cc1S(=O)(=O)Nc1c(C)cccc1C` [compound 2523], for which the activation at 50 µM was 181 to 352%.

Turning to `COc1ncc(NC(=O)c2c(C)noc2C)cc1S(=O)(=O)Nc1c(C)cccc1C` [compound 2524], the activation at 50 µM lay in the range of 151 to 180%.

For `COc1ncc(NC(=O)c2cccc3c2CCC(=O)N3)cc1S(=O)(=O)Nc1c(C)cccc1C` [compound 2525], the activation at 50 µM lay within 151 to 180%.

The values are drawn from patent US20230159509A1 (Amathus Therapeutics, Inc., priority 2020, published 2023).
